pIC50: −log10 of the molar value. Where two headings read alike, the source gives them in different places.
Columns and labels:
Stability = assay type: physicochemical; conditions: qualitative statement
WNV NS2B-NS3 proteinase [1] = target: T1, WNV NS2B-NS3 proteinase (West Nile virus, UniProt Q9Q6P4); assay: WNV NS2B-NS3 proteinase activity assay with Pyr-RTKR-AMC fluorogenic substrate; assay type: biochemical; conditions: for inhibitory activity (in words): qualitative statement
WNV NS2B-NS3 proteinase [2] = target: T1, WNV NS2B-NS3 proteinase; assay: Stability in the in vitro assay buffer with WNV NS2B-NS3 proteinase; conditions: Figure 2
[3] = Stability in the in vitro assay buffer without enzyme; assay type: physicochemical; conditions: absence of enzyme, Figure 2
WNV NS2B-NS3 proteinase [4] = target: T1, WNV NS2B-NS3 proteinase; conditions: products of ester hydrolysis; cited from earlier work

T1 sequence (Q9Q6P4 1506-1683): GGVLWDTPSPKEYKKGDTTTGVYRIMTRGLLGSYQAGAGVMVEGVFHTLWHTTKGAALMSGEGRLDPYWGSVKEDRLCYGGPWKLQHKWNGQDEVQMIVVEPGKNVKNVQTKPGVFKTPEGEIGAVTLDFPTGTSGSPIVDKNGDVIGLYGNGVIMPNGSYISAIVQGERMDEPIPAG
T1 sequence (Q9Q6P4 1375-1505): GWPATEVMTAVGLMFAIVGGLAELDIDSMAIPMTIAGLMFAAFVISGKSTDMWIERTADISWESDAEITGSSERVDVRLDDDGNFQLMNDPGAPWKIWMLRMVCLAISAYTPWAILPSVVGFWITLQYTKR

Cc1cc(NC(=O)c2ccccc2)n(-c2ccccc2)n1 [Compound 15]
stability in pH 8 buffer (in words) (Stability): highly stable

COc1ccc(S(=O)(=O)n2nc(OC(=O)c3ccccc3[N+](=O)[O-])cc2N)cc1 [Compound 7p]
pIC50 (WNV NS2B-NS3 proteinase [1]): < 4.00
inhibitory activity (in words) (WNV NS2B-NS3 proteinase [1]): inactive

COc1ccc(S(=O)(=O)n2nc(OC(=O)c3c(F)cccc3F)cc2N)cc1 [Compound 7a]
stability in pH 8 buffer (in words) (Stability): significantly more stable

COc1ccc(S(=O)(=O)n2nc(OC(=O)c3ccc(F)cc3F)cc2N)cc1 [Compound 7e]
stability in presence of enzyme (in words) (WNV NS2B-NS3 proteinase [2]): degraded rapidly
stability in assay buffer (in words) [3]: relatively stable

COc1ccc(S(=O)(=O)n2nc(OC(=O)c3ccccc3OC)cc2N)cc1 [Compound 7o]
inhibitory activity (in words) (WNV NS2B-NS3 proteinase [1]): inactive

COc1ccc(Cn2nc(C)cc2OC(=O)c2ccccc2)cc1 [Compound 10a]
stability in presence of enzyme (in words) (WNV NS2B-NS3 proteinase [2]): approximately the same in the presence or absence of the enzyme
stability in pH 8 buffer (in words) (Stability): significantly more stable

COc1ccc(S(=O)(=O)n2nc(OC(=O)c3c(Cl)cccc3Cl)cc2N)cc1 [Compound 7n]
pIC50 (WNV NS2B-NS3 proteinase [1]): < 4.00
inhibitory activity (in words) (WNV NS2B-NS3 proteinase [1]): complete loss of activity

COc1ccc(Cn2nc(C)cc2/C=C/c2c(F)cccc2F)cc1 [Compound 14]
stability in pH 8 buffer (in words) (Stability): highly stable

COc1ccc(Cn2nc(C)cc2CC(O)c2c(F)cccc2F)cc1 (stereo not shown) [Compound 12b]
pIC50 (WNV NS2B-NS3 proteinase [1]): < 4.00

COc1ccc(Cn2nc(C)cc2CC(O)c2ccccc2)cc1 (stereo not shown) [Compound 12a]
pIC50 (WNV NS2B-NS3 proteinase [1]): < 4.00

COc1ccc(Cn2nc(C)cc2CC(=O)c2ccccc2)cc1 [Compound 13a]
pIC50 (WNV NS2B-NS3 proteinase [1]): < 4.00

COc1ccc(S(=O)(=O)n2nc(OC(=O)c3cccs3)cc2N)cc1 [Compound 2]
pIC50 (WNV NS2B-NS3 proteinase [1]): 6.96

COc1ccc(Cn2nc(C)cc2O)cc1 [Compound 8, 1-(4-methoxybenzyl)-3-methyl-1H-pyrazol-5-ol]
pIC50 (WNV NS2B-NS3 proteinase [4]): < 4.00

COc1ccc(S(=O)(=O)n2nc(OC(=O)c3ccccc3)cc2N)cc1 [Compound 1]
pIC50 (WNV NS2B-NS3 proteinase [1]): 6.98

COc1ccc(S(=O)(=O)n2nc(OC(=O)c3ccccc3C)cc2N)cc1 [Compound 7f]
inhibitory activity (in words) (WNV NS2B-NS3 proteinase [1]): retained its micromolar inhibitory activity

Reference: PMC2776708 (Bioorganic & medicinal chemistry letters, 2009)
